# Data reported in patent US20230085307A1, “PYRIDAZINONE COMPOUND AND HERBICIDE” (NISSAN CHEMICAL CORPORATION, priority 2019, published 2023).
# Columns and labels:
# [1] = system: rice flat sedge; test: Test Example 3: herbicidal effect by foliage application, Wagner pot (Table 18, symbol E); format: in vivo, rice flat sedge (Cyperus iria); details: amount of applied herbicide 320 g/ha
# In short: (§1)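 Plants were sown in alluvial soil held under 0.1–0.5 cm standing water and grown 14 days in a greenhouse at 25–30 °C. An emulsifiable formulation, water-diluted to the set dose, was then sprayed onto the foliage, and effects were scored three weeks later using previously defined criteria.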
# [2] = system: wild oat; test: Test Example 4: herbicidal effect by soil treatment (Table 19, symbol I); format: in vivo, wild oat (Avena fatua); details: amount of applied herbicide 320 g/ha
# In short: (§2)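 In this soil treatment, the formulated compound reached the seeds only through the soil: seeds were buried about 1.5 cm deep in sterilized diluvial soil, then the diluted emulsion was sprayed over the surface. After three weeks at 25° C. to 30° C. in a greenhouse, effects were graded on criteria from an earlier test.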
# [3] = system: lambsquarters; test: Test Example 4: herbicidal effect by soil treatment (Table 19, symbol O); format: in vivo, lambsquarters (Chenopodium album); details: amount of applied herbicide 320 g/ha
# In short: as §2
# [4] = system: southern crabgrass; test: Test Example 5: herbicidal effect by foliage application, plastic box (Table 20, symbol F); format: in vivo, southern crabgrass (Digitaria ciliaris); details: foliage application, 320 g/ha
# In short: (§3)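 Plants were sown into sterilized diluvial soil under about 1.5 cm cover and kept in a greenhouse at 25° C. to 30° C. Fourteen days on, foliage received an even spray of the diluted emulsion. Herbicidal or crop effect was judged three weeks afterwards.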
# [5] = system: false cleavers; test: Test Example 4: herbicidal effect by soil treatment (Table 19, symbol Q); format: in vivo, false cleavers (Galium spurium); details: amount of applied herbicide 320 g/ha
# Text: [Test Example 4] Herbicidal Effect Test by Soil Treatment
# Sterilized diluvial soil was placed in a plastic box having a length of 21 cm, a width of 13 cm, and a depth of 7 cm. The seeds of each of southern crabgrass, green foxtail, barnyard grass, wild oat, blackgrass, Italian ryegrass, windgrass, velvetleaf, redroot pigweed, lambsquarters, chickweed, false cleavers, persian speedwell, corn, soybean, rice, wheat, beet, and rapeseed were sowed in a spot-like manner and covered with the soil having a thickness of about 1.5 cm. Subsequently, the emulsion agent of the compound of the present invention prepared according to Formulation Example 2 was diluted with water so as to achieve a predetermined herbicide amount, and the diluted emulsion agent was uniformly applied to the surface of the soil with a small-sized spray. The plastic box was placed in a greenhouse at 25° C. to 30° C. for growth of the plants. Three weeks after the herbicide application, the effect of the herbicide on each plant was evaluated according to the criteria of Test Example 1.
# [6] = system: velvetleaf; test: Test Example 4: herbicidal effect by soil treatment (Table 19, symbol M); format: in vivo, velvetleaf (Abutilon theophrasti); details: amount of applied herbicide 320 g/ha
# In short: as §2
# [7] = system: blackgrass; test: Test Example 5: herbicidal effect by foliage application, plastic box (Table 20, symbol J); format: in vivo, blackgrass (Alopecurus myosuroides); details: foliage application, 320 g/ha
# In short: as §3
# [8] = system: barnyard grass; test: Test Example 5: herbicidal effect by foliage application, plastic box (Table 20, symbol H); format: in vivo, barnyard grass (Echinochloa crus-galli); details: foliage application, 320 g/ha
# In short: as §3
# [9] = system: green foxtail; test: Test Example 5: herbicidal effect by foliage application, plastic box (Table 20, symbol G); format: in vivo, green foxtail (Setaria viridis); details: foliage application, 320 g/ha
# In short: as §3
# [10] = system: Chinese sprangletop; test: Test Example 3: herbicidal effect by foliage application, Wagner pot (Table 18, symbol D); format: in vivo, chinese sprangletop (Leptochloa chinensis); details: amount of applied herbicide 320 g/ha
# In short: as §1
# [11] = system: redroot pigweed; test: Test Example 5: herbicidal effect by foliage application, plastic box (Table 20, symbol N); format: in vivo, redroot pigweed (Amaranthus retroflexus); details: foliage application, 320 g/ha
# In short: as §3
# [12] = system: redroot pigweed; test: Test Example 4: herbicidal effect by soil treatment (Table 19, symbol N); format: in vivo, redroot pigweed (Amaranthus retroflexus); details: amount of applied herbicide 320 g/ha
# In short: as §2
# [13] = system: blackgrass; test: Test Example 4: herbicidal effect by soil treatment (Table 19, symbol J); format: in vivo, blackgrass (Alopecurus myosuroides); details: amount of applied herbicide 320 g/ha
# In short: as §2
# [14] = system: Italian ryegrass; test: Test Example 5: herbicidal effect by foliage application, plastic box (Table 20, symbol K); format: in vivo, Italian ryegrass (Lolium multiflorum); details: foliage application, 320 g/ha
# In short: as §3
# [15] = system: chickweed; test: Test Example 5: herbicidal effect by foliage application, plastic box (Table 20, symbol P); format: in vivo, common chickweed (Stellaria media); details: foliage application, 320 g/ha
# In short: as §3
# [16] = system: barnyard grass; test: Test Example 4: herbicidal effect by soil treatment (Table 19, symbol H); format: in vivo, barnyard grass (Echinochloa crus-galli); details: amount of applied herbicide 320 g/ha
# In short: as §2
# [17] = system: barnyard grass; test: Test Example 3: herbicidal effect by foliage application, Wagner pot (Table 18, symbol H); format: in vivo, barnyard grass (Echinochloa crus-galli); details: amount of applied herbicide 320 g/ha
# In short: as §1
# [18] = system: windgrass; test: Test Example 4: herbicidal effect by soil treatment (Table 19, symbol L); format: in vivo, windgrass (Apera spica-venti); details: amount of applied herbicide 320 g/ha
# In short: as §2
# [19] = system: southern crabgrass; test: Test Example 4: herbicidal effect by soil treatment (Table 19, symbol F); format: in vivo, southern crabgrass (Digitaria ciliaris); details: amount of applied herbicide 320 g/ha
# In short: as §2
# [20] = system: persian speedwell; test: Test Example 5: herbicidal effect by foliage application, plastic box (Table 20, symbol R); format: in vivo, Persian speedwell (Veronica persica); details: foliage application, 320 g/ha
# In short: as §3
# [21] = system: wild oat; test: Test Example 5: herbicidal effect by foliage application, plastic box (Table 20, symbol I); format: in vivo, wild oat (Avena fatua); details: foliage application, 320 g/ha
# In short: as §3
# [22] = system: velvetleaf; test: Test Example 5: herbicidal effect by foliage application, plastic box (Table 20, symbol M); format: in vivo, velvetleaf (Abutilon theophrasti); details: foliage application, 320 g/ha
# In short: as §3
# [23] = system: Italian ryegrass; test: Test Example 4: herbicidal effect by soil treatment (Table 19, symbol K); format: in vivo, Italian ryegrass (Lolium multiflorum); details: amount of applied herbicide 320 g/ha
# In short: as §2
# [24] = system: lambsquarters; test: Test Example 5: herbicidal effect by foliage application, plastic box (Table 20, symbol O); format: in vivo, lambsquarters (Chenopodium album); details: foliage application, 320 g/ha
# In short: as §3
# [25] = system: windgrass; test: Test Example 5: herbicidal effect by foliage application, plastic box (Table 20, symbol L); format: in vivo, windgrass (Apera spica-venti); details: foliage application, 320 g/ha
# In short: as §3
# [26] = system: green foxtail; test: Test Example 4: herbicidal effect by soil treatment (Table 19, symbol G); format: in vivo, green foxtail (Setaria viridis); details: amount of applied herbicide 320 g/ha
# In short: as §2
# [27] = evaluated three weeks after application
smiles,measurement,setting,value
COc1ccccc1-c1sc2ccc(C(F)(F)F)cc2c1-c1c(O)c(C)nn(C)c1=O [2-162],herbicidal effect on E: rice flat sedge,[1],3 (Herbicidal rate of 40% or more and less than 70%)
same,"I: wild oat, herbicidal effect rating",[2],0 (Herbicidal rate of 5% or less (almost no effect))
same,"O: lambsquarters, herbicidal effect rating",[3],1 (Herbicidal rate of 5% or more and less than 20%)
same,herbicidal effect on F: southern crabgrass (criteria 0-5),[4]; [27],0 (Herbicidal rate of 5% or less (almost no effect))
same,"Q: false cleavers, herbicidal effect rating",[5],0 (Herbicidal rate of 5% or less (almost no effect))
same,"M: velvetleaf, herbicidal effect rating",[6],0 (Herbicidal rate of 5% or less (almost no effect))
same,herbicidal effect on J: blackgrass (criteria 0-5),[7]; [27],0 (Herbicidal rate of 5% or less (almost no effect))
same,herbicidal effect on H: barnyard grass (criteria 0-5),[8]; [27],0 (Herbicidal rate of 5% or less (almost no effect))
same,herbicidal effect on G: green foxtail (criteria 0-5),[9]; [27],0 (Herbicidal rate of 5% or less (almost no effect))
same,herbicidal effect on D: Chinese sprangletop,[10],0 (Herbicidal rate of 5% or less (almost no effect))
same,herbicidal effect on N: redroot pigweed (criteria 0-5),[11]; [27],3 (Herbicidal rate of 40% or more and less than 70%)
same,"N: redroot pigweed, herbicidal effect rating",[12],2 (Herbicidal rate of 20% or more and less than 40%)
same,"J: blackgrass, herbicidal effect rating",[13],0 (Herbicidal rate of 5% or less (almost no effect))
same,herbicidal effect on K: Italian ryegrass (criteria 0-5),[14]; [27],0 (Herbicidal rate of 5% or less (almost no effect))
same,herbicidal effect on P: chickweed (criteria 0-5),[15]; [27],5 (Herbicidal rate of 90% or more (almost completely withered))
same,"H: barnyard grass, herbicidal effect rating",[16],0 (Herbicidal rate of 5% or less (almost no effect))
same,herbicidal effect on H: barnyard grass,[17],3 (Herbicidal rate of 40% or more and less than 70%)
same,"L: windgrass, herbicidal effect rating",[18],0 (Herbicidal rate of 5% or less (almost no effect))
same,"F: southern crabgrass, herbicidal effect rating",[19],0 (Herbicidal rate of 5% or less (almost no effect))
same,herbicidal effect on R: persian speedwell (criteria 0-5),[20]; [27],2 (Herbicidal rate of 20% or more and less than 40%)
same,herbicidal effect on I: wild oat (criteria 0-5),[21]; [27],0 (Herbicidal rate of 5% or less (almost no effect))
same,herbicidal effect on M: velvetleaf (criteria 0-5),[22]; [27],2 (Herbicidal rate of 20% or more and less than 40%)
same,"K: Italian ryegrass, herbicidal effect rating",[23],0 (Herbicidal rate of 5% or less (almost no effect))
same,herbicidal effect on O: lambsquarters (criteria 0-5),[24]; [27],0 (Herbicidal rate of 5% or less (almost no effect))
same,herbicidal effect on L: windgrass (criteria 0-5),[25]; [27],0 (Herbicidal rate of 5% or less (almost no effect))
same,"G: green foxtail, herbicidal effect rating",[26],3 (Herbicidal rate of 40% or more and less than 70%)
Cc1nn(C)c(=O)c(-c2c(-c3ccc(F)cc3)sc3cc(Cl)ccc23)c1O [3-031],herbicidal effect on E: rice flat sedge,[1],3 (Herbicidal rate of 40% or more and less than 70%)
same,"I: wild oat, herbicidal effect grade",[2],1 (Herbicidal rate of 5% or more and less than 20%)
same,"O: lambsquarters, herbicidal effect grade",[3],4 (Herbicidal rate of 70% or more and less than 90%)
same,"F: southern crabgrass, herbicidal effect grade",[4]; three weeks after application,4 (Herbicidal rate of 70% or more and less than 90%)
same,"Q: false cleavers, herbicidal effect grade",[5],4 (Herbicidal rate of 70% or more and less than 90%)
same,"M: velvetleaf, herbicidal effect grade",[6],2 (Herbicidal rate of 20% or more and less than 40%)
same,"J: blackgrass, herbicidal effect grade",[7]; three weeks after application,4 (Herbicidal rate of 70% or more and less than 90%)
same,"H: barnyard grass, herbicidal effect grade",[8]; three weeks after application,4 (Herbicidal rate of 70% or more and less than 90%)
same,"G: green foxtail, herbicidal effect grade",[9]; three weeks after application,5 (Herbicidal rate of 90% or more (almost completely withered))
same,herbicidal effect on D: Chinese sprangletop,[10],2 (Herbicidal rate of 20% or more and less than 40%)
same,"N: redroot pigweed, herbicidal effect grade",[11]; three weeks after application,5 (Herbicidal rate of 90% or more (almost completely withered))
same,"N: redroot pigweed, herbicidal effect grade",[12],3 (Herbicidal rate of 40% or more and less than 70%)
same,"J: blackgrass, herbicidal effect grade",[13],0 (Herbicidal rate of 5% or less (almost no effect))
same,"K: Italian ryegrass, herbicidal effect grade",[14]; three weeks after application,5 (Herbicidal rate of 90% or more (almost completely withered))
same,"P: chickweed, herbicidal effect grade",[15]; three weeks after application,5 (Herbicidal rate of 90% or more (almost completely withered))
same,"H: barnyard grass, herbicidal effect grade",[16],3 (Herbicidal rate of 40% or more and less than 70%)
same,herbicidal effect on H: barnyard grass,[17],5 (Herbicidal rate of 90% or more (almost completely withered))
same,"F: southern crabgrass, herbicidal effect grade",[19],3 (Herbicidal rate of 40% or more and less than 70%)
same,"R: persian speedwell, herbicidal effect grade",[20]; three weeks after application,5 (Herbicidal rate of 90% or more (almost completely withered))
same,"I: wild oat, herbicidal effect grade",[21]; three weeks after application,5 (Herbicidal rate of 90% or more (almost completely withered))
same,"M: velvetleaf, herbicidal effect grade",[22]; three weeks after application,5 (Herbicidal rate of 90% or more (almost completely withered))
same,"K: Italian ryegrass, herbicidal effect grade",[23],3 (Herbicidal rate of 40% or more and less than 70%)
same,"O: lambsquarters, herbicidal effect grade",[24]; three weeks after application,4 (Herbicidal rate of 70% or more and less than 90%)
same,"L: windgrass, herbicidal effect grade",[25]; three weeks after application,5 (Herbicidal rate of 90% or more (almost completely withered))
same,"G: green foxtail, herbicidal effect grade",[26],4 (Herbicidal rate of 70% or more and less than 90%)
